Assay [1] has as its target T1, Alpha-2A adrenergic receptor (Homo sapiens) (UniProt P08913).
T1 sequence (whole entry): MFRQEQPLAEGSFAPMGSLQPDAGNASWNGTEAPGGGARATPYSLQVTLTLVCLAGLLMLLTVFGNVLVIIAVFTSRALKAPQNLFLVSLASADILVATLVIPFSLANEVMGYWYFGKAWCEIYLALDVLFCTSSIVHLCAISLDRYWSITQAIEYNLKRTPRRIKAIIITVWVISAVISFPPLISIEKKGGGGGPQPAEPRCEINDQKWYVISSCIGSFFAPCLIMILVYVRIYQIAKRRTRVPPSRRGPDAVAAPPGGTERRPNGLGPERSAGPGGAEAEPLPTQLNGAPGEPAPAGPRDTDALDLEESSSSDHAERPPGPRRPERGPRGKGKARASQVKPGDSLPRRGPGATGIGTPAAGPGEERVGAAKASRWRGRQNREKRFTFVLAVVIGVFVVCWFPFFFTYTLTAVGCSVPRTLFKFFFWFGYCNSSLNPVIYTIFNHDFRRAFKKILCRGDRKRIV
The assay is described as follows: Tested for Binding affinity towards Alpha-2A adrenergic receptor at 1 uM.

The species entered for another assay is Rattus norvegicus. The assay is described as follows: Selectivity ratio of alpha1/alpha2d.
Assay [2] concerns the target T2, Alpha-2C adrenergic receptor (Homo sapiens) (UniProt P18825).
T2 sequence (whole entry): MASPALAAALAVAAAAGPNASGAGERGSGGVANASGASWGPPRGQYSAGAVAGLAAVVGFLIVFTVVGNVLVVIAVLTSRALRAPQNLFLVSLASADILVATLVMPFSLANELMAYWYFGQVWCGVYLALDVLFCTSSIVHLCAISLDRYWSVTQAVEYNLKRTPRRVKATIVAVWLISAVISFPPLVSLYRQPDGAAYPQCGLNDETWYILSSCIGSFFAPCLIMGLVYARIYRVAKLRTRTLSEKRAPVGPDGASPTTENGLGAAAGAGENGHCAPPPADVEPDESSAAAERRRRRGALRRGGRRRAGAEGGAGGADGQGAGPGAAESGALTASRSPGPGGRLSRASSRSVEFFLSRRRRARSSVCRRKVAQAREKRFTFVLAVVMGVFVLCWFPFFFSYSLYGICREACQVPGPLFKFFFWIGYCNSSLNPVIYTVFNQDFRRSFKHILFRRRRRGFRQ
Kind of assay: Tested for Binding affinity towards alpha-2C adrenergic receptor in rat cells at 1 uM. Type of assay: cell-based.

Assay [3] concerns the target T3, Alpha-2A adrenergic receptor (Homo sapiens, UniProt P08913).
T3 sequence (P08913 whole entry): T1 sequence (whole entry)
Kind of assay: Binding affinity towards Alpha-2A adrenergic receptor.

Assay [4] addresses T4, Alpha-2B adrenergic receptor (Homo sapiens, UniProt P18089).
T4 sequence (P18089 whole entry): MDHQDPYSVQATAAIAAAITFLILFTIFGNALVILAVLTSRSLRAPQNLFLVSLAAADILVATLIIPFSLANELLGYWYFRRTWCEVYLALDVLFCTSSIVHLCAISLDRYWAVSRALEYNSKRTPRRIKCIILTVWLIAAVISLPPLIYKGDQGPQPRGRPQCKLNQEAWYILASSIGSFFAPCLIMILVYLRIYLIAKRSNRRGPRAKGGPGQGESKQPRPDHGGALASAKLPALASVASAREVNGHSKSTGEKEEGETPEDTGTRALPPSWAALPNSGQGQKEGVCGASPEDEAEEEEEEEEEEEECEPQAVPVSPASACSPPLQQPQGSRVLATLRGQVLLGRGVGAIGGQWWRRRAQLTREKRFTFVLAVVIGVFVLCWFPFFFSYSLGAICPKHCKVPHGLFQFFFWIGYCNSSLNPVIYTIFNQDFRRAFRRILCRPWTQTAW
The assay is described as follows: Tested for Binding affinity towards alpha-2B adrenergic receptor.

For assay [5], the target named is T4, Alpha-2B adrenergic receptor. The assay is described as follows: Binding affinity towards Alpha-2B adrenergic receptor.
For assay [6], the target named is T5, Alpha-2C adrenergic receptor (Homo sapiens, UniProt P18825).
T5 sequence (P18825 whole entry): T2 sequence (whole entry)
The assay is described as follows: Binding affinity towards alpha-2C adrenergic receptor.

Assay [7] has as its target T6, Adrenergic receptor alpha-1 (Rattus norvegicus, UniProt P15823+P23944+P43140).
T6 sequence (P15823 whole entry): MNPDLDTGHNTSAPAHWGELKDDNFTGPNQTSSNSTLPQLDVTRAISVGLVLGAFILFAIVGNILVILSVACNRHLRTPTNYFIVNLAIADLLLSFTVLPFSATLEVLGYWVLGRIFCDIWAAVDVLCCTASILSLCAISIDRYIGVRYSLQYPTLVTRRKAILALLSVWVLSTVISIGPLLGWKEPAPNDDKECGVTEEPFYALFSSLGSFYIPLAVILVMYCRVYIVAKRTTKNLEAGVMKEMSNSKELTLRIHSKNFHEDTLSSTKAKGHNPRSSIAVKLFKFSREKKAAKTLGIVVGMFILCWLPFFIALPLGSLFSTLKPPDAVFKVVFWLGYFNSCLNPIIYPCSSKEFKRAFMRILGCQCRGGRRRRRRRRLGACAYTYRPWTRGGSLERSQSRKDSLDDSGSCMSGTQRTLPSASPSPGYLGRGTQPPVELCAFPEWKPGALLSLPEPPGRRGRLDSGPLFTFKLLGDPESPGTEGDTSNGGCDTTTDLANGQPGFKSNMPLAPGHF
T6 sequence (P23944 whole entry): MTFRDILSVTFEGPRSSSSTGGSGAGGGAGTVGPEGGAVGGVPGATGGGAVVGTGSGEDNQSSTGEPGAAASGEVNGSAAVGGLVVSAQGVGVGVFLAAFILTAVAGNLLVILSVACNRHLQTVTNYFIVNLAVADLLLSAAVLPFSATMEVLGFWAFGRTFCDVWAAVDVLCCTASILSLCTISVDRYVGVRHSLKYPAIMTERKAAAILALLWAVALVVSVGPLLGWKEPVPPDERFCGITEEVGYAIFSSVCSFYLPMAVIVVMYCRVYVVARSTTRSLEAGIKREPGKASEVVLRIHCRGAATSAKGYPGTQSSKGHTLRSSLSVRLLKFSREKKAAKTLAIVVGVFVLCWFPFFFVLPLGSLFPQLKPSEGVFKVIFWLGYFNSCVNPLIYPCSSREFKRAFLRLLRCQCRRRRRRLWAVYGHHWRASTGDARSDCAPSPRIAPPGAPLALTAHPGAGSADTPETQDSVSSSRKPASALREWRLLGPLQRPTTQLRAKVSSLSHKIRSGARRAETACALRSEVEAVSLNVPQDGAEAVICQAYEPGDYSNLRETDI
T6 sequence (P43140 whole entry): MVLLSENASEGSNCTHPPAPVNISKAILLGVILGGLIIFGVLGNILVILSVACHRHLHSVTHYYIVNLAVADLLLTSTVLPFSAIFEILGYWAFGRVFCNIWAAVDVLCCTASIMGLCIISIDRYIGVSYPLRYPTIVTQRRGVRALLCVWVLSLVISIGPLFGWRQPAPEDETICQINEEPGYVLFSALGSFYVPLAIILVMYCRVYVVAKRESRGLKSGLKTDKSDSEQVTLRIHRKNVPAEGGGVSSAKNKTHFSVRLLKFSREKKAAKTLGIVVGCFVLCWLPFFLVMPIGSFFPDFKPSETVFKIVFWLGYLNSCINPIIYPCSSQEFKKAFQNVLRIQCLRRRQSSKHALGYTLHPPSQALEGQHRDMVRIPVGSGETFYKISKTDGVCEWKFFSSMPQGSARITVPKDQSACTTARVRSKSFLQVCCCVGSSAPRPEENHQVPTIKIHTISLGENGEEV
The assay is described as follows: Tested for Binding affinity towards alpha-1 adrenergic receptor. It is filed as protein assay.

For assay [8], the target named is T7, Alpha-2A adrenergic receptor (Rattus norvegicus, UniProt P22909).
T7 sequence (P22909 whole entry): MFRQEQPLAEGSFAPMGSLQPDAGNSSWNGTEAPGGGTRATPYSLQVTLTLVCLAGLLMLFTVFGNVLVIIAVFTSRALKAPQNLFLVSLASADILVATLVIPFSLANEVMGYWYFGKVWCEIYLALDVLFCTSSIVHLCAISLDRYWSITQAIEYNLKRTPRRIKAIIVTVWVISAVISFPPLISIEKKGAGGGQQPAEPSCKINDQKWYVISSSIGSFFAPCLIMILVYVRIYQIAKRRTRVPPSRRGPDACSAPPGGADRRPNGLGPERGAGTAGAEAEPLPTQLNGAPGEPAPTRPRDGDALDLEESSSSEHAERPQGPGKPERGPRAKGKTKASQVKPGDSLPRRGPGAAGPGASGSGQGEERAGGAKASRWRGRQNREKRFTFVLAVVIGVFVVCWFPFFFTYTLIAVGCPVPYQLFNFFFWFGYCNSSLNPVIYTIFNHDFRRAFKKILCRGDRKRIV
The assay is described as follows: Binding affinity towards alpha-2D adrenergic receptor.

We go through eleven molecules from ChEMBL document CHEMBL1133123 (J Med Chem, 2000).

Broadly, the inhibition is the share of the control response that was lost under treatment. Lower therefore signals a response near the control. As usually defined, the Ki is a dissociation constant, usually derived from enzyme kinetics or from competition with a known ligand. Low values mean a stronger hold on the target, high ones a looser hold on the target.

As for `c1nc(C2CCCc3ccsc32)c[nH]1` (stereo not drawn), the values for the inhibition in assay [1] and in assay [2] were 87% and 54%, respectively. Also, the Ratio in the assay listed under Rattus norvegicus was 260.

`Cc1sc(C)c2c1CCC=C2c1c[nH]cn1`: in the assay filed under Rattus norvegicus, the Ratio came to 11600.

On to `C1=C(c2cnc[nH]2)c2sccc2CC1`, for which the Ki worked out at 224 nM in assay [3] and 940 nM in assay [4].

For the molecule `Cc1sc(C)c2c1CCCC2c1c[nH]cn1` (stereo not drawn), the Ratio in the assay filed under Rattus norvegicus was 17. In addition, the Ki in assay [3] was 68 nM; in [5], 141 nM; in assay [6], 205 nM.

Turning to `Cc1cccc([C@H](C)c2c[nH]cn2)c1C` [DEXMEDETOMIDINE], in the assay filed under Rattus norvegicus, the Ratio was determined as 333. For the same molecule, the Ki in assay [7] came to 5 nM.

As for `c1cc(-c2c[nH]cn2)c2ccsc2c1`, the Ratio in the assay listed under Rattus norvegicus amounted to 132. Moreover, the Ki in assay [3] was 277 nM; in [5], 663 nM.

For `C1=C(c2c[nH]cn2)c2sccc2CC1`, the Ratio in the assay listed under Rattus norvegicus turned out to be 133.

Turning to `Cc1sc(C)c2c1CCC=C2c1cnc[nH]1`, the Ki in [3] was 25 nM; in assay [5], 100 nM; in assay [6] it was 26 nM; in assay [8], 8.6 nM.

For the molecule `C1=C(c2c[nH]cn2)c2ccsc2CC1`, the Ratio in the assay filed under Rattus norvegicus was determined as 295. Besides, the results for the inhibition constant Ki in [3] and in assay [5] were 254 nM and 621 nM, respectively.

`c1nc(C2CCCc3sccc32)c[nH]1` (stereo not drawn): the Ratio in the assay filed under Rattus norvegicus was 196. Further, the inhibition constant Ki in assay [3] amounted to 27 nM; in assay [5], 99 nM; in [6], 172 nM.

In turn, `Cc1cccc([C@H](C)c2cnc[nH]2)c1C` [DEXMEDETOMIDINE] displayed a Ki in assay [8] of 0.015 nM.
